The test system of one experiment is Arabidopsis thaliana. Put plainly: Root elongation in plates (in planta root elongation assay). The note with it: 168 h, A. thaliana on MS medium plates, 7 days, read-out: Root-growth inhibition %. It counts as in vivo. The method, then: 6-well plates were prepared in a biological hood with sterile half Murashige and Skoog mineral medium (MS; Duchefa, Haarlem, Netherlands) containing 1% sucrose (w/v), pH 5.8. Tested molecules were dissolved in 50 mM DMSO and diluted to various concentrations 1,000-fold greater than the final desired concentration the MS medium maintaining a final concentration of 0.1% DMSO. MS medium with 0.1% DMSO was used as a negative control. After 7 days the plates were scanned and the root length was calculated using the imageJ software. […] Further sterilization was done by washing the seeds with 50% hypochlorite and 0.2% Triton x-100 for 10 minutes followed by five cycles of washing with sterile water. Six seeds were placed in each well, and the plates were covered and sealed with parafilm. Plates were placed vertically at 4° C. for two days and then transferred to a growth chamber for seven days (22-24° C.) at day/light cycles of 16/8 hours. Following the in vitro evaluation, selected molecules were tested for their ability to inhibit A. thaliana root elongation on agar plates. Seeds were plated on medium containing the molecules dissolved in the indicated concentrations and root length was measured after 6 or 7 days when the root in the non-treated plate reached the end of the well.

Experiment [1] addresses T1, OASS-SAT complex (AtOASS with SAT-derived peptide) (Arabidopsis thaliana, UniProt P47998).
T1 construct: GST (N, cleaved yes); made in house; host or cells: E. coli Rosetta (DE3)
Briefly: Fluorescence polarization (FP) competition with FITC-labeled SAT-derived peptide bound to OASS. The following applies: competition with FITC-SAT peptide 200 nM, OASS 2.2 μM; for IC50: single site inhibition model. It counts as binding. As to the method:
Molecules were also tested for their ability to compete with the OASS binding to the SAT-derived peptide via a fluorescence polarization (FP) competition assay wherein the N-terminus labeled peptide was incubated with the AtOASS (see Examples section below). High FP values correspond to the peptide-bound state (low molecule concentrations) and low FP values correspond to the peptide-free state (low FP values). To extract the IC50, the FP data were fitted to a single site inhibition model in PRISM by GraphPad Software. The corresponding IC50 values were extracted, whereas low IC50 values correspond to molecule that better competes with the peptide binding to AtOASS. Fluorescence polarization (FP) measurements were made on samples arrayed in 96-well plates by using BioTek H1 Synergy instrument equipped with FP module. […] The peptide in a concentration of 200 nM was incubated with OASS at a concentration of 2.2 μM in each well. Variable concentrations of each molecule starting from 100 μM down to 0.048 μM were added to evaluate the ability of each molecule to compete off the FITC labeled peptide bound to OASS. Fluorescence experiments were executed with an Em/Exc wavelengths of 480/520 nm. All measurements were done in triplicate. Experimental polarization data from simple and competitive binding experiments were fitted using GraphPad Prism, with error bars representing SD. Molecules were also tested for their ability to compete with the OASS binding to the SAT-derived peptide via a fluorescence polarization (FP) competition assay. The N-terminus labeled peptide was incubated with the AtOASS in each of the wells in a 96-well plate. Various concentrations of the molecules were added and the FP values were recorded. High FP values correspond to the peptide-bound state (low molecule concentrations) and low FP values correspond to the peptide-free state (low FP values). To extract the IC50, the FP data were fitted to a single site inhibition model in graphpad prism. The corresponding IC50 values were extracted. Low IC50 values correspond to molecule that better competes with the peptide binding to AtOASS.
(Polarisation of emitted light reports the rotation of a fluorescent probe.)

T1 sequence (P47998 whole entry, one chain of several): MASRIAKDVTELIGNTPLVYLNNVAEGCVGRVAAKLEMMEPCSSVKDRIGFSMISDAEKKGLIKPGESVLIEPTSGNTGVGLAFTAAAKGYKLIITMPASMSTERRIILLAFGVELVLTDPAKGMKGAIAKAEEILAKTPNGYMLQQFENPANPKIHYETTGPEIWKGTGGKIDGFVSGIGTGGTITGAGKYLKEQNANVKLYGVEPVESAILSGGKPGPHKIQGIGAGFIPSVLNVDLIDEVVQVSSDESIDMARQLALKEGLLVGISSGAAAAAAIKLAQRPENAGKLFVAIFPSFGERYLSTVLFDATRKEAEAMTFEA

One may read the inhibition as the drop in the measured response relative to a control, in per cent. One may read the IC50 as the concentration that gives 50% inhibition. `Cc1cn(-c2ccccc2)nc1NS(=O)(=O)c1cc(C(=O)O)cc2c1CCC2` [PJL-2]: in the experiment on Arabidopsis thaliana, the inhibition at 50 µM amounted to 70%. For the same compound, in experiment [1], the FP % inhibition came to 11% and the IC50 amounted to 236 µM.
For `O=C(O)c1cc(F)ccc1NS(=O)(=O)c1cnn(-c2ccccc2F)c1` [PJL-5] the same measures were 56%, 16% and 148 µM.
For `COc1ccc(NS(=O)(=O)c2cc(C(=O)O)cc3c2CCC3)cc1Cl` [PJL-21] the same measures were 0%, 14% and 149 µM.
Turning to `Cc1cc2cc(NS(=O)(=O)c3cc(C(=O)O)cc4c3CCC4)ccc2[nH]1` [PJL-22], the inhibition at 50 µM with Arabidopsis thaliana was found to be 0%. Also, in experiment [1], the FP % inhibition was 13% and the IC50 was found to be 206 µM.
For `O=C(O)c1cc(NS(=S)(=S)c2cnc(-c3ccc(F)cc3)s2)c(F)cc1F` [PJL-27] the same measures were 25%, 11% and 188 µM.
For `CC(C)(C)NC(=O)c1cccc(NC(=O)c2ccccc2-c2ccccc2C(=O)O)c1` [PJL-59] the same measures were 6%, 19% and 58 µM.
Consider `O=C(O)c1cc2c(c(S(=O)(=O)Nc3cccc(C(=O)Nc4ccccn4)c3)c1)CCC2` [PJL-70], for which, in the experiment with Arabidopsis thaliana, the inhibition at 50 µM amounted to 0%. Besides, the FP % inhibition in experiment [1] amounted to 15%.
Regarding `CN(C)c1ncn(-c2cccc(NS(=O)(=O)c3cc(C(=O)O)cc4c3CCC4)c2)n1` [PJL-74], in the experiment with Arabidopsis thaliana, the inhibition at 50 µM stood at 9%. In experiment [1], the FP % inhibition worked out at 26% and the IC50 amounted to 22 µM.
As for `O=C(O)c1ccc(O)cc1NS(=O)(=O)c1cnc(-c2ccccc2)o1` [PJL-82], the inhibition at 50 µM in the experiment on Arabidopsis thaliana is 0%. Besides, in experiment [1], the FP % inhibition was determined as 11% and the IC50 turned out to be 150 µM.
With `COc1ccccc1-n1cc(S(=O)(=O)Nc2ccc(F)cc2C(=O)O)cn1` [PJL-85], the inhibition at 50 µM with Arabidopsis thaliana is 0%. Besides, in experiment [1], the FP % inhibition amounted to 15% and the IC50 came out at 111 µM.
For `Cc1ccnc(-n2cc(S(=O)(=O)Nc3ccc(F)cc3C(=O)O)cn2)c1` [PJL-86] the same measures were 0%, 36% and 20 µM.
For `CCn1nnc(-c2ccc(O)c(NC(=O)Cc3ccccc3C(=O)O)c2)n1` [PJL-88] the same measures were 0%, 10% and 80 µM.
In the case of `O=C(Cc1ccccc1C(=O)O)Nc1cc(C(=O)Nc2cccnc2)ccc1F` [PJL-91], in experiment [1], the FP % inhibition is 13% and the IC50 turned out to be 55 µM.
`CCc1nnc(-c2ccc(O)c(NC(=O)Cc3ccccc3C(=O)O)c2)o1` [PJL-92]: in the experiment on Arabidopsis thaliana, the inhibition at 50 µM was found to be 0%. Further, in experiment [1], the FP % inhibition turned out to be 13% and the IC50 is 122 µM.
For `CC(C)c1n[nH]c(-c2ccc(NC(=O)Cc3ccccc3C(=O)O)cc2)n1` [PJL-95] the same measures were 10%, 27% and 22 µM.
For `CC(C)c1n[nH]c(-c2cccc(NC(=O)Cc3ccccc3C(=O)O)c2)n1` [PJL-96] the same measures were 2%, 22% and 43 µM.
For `CC(C)Cc1ccc(-c2csc(NC(=O)c3ccccc3-c3ccccc3C(=O)O)n2)cc1` [PJL-108] the same measures were 17%, 47% and 4.7 µM.
In the case of `Nc1cc(F)ccc1-c1csc(NC(=O)c2ccccc2-c2ccccc2C(=O)O)n1` [PJL-111], in the experiment on Arabidopsis thaliana, the inhibition at 50 µM came to 66%. In addition, in experiment [1], the FP % inhibition came to 45%.
As for `O=C(O)c1ccccc1-c1cccnc1C(=O)Nc1nc(-c2ccc(Cl)cc2Cl)cs1` [PJL-115], in the experiment on Arabidopsis thaliana, the inhibition at 50 µM worked out at 96%. Also, in experiment [1], the FP % inhibition came out at 36% and the IC50 was found to be 12 µM.
For `O=C(O)c1cc(F)ccc1-c1ccccc1C(=O)Nc1nc(-c2ccc(Cl)cc2Cl)cs1` [PJL-119] the same measures were 100%, 52% and 8.56 µM.
Turning to `O=C(O)c1ccccc1-c1ccccc1C(=O)Nc1cc(-c2ccc(Cl)cc2Cl)c[nH]c1=O` [PJL-120], the inhibition at 50 µM with Arabidopsis thaliana came out at 88%. In addition, in experiment [1], the FP % inhibition worked out at 14% and the IC50 is 115 µM.
In the case of `COc1ccc(C(=O)O)c(NS(=O)(=O)c2cnn(-c3ccc(F)cc3)c2)c1` [PJL-121], the inhibition at 50 µM in the experiment on Arabidopsis thaliana is 72%. Moreover, in experiment [1], the FP % inhibition was determined as 4.6% and the IC50 turned out to be 322 µM.
Turning to `CCc1ccc(C(=O)O)c(NS(=O)(=O)c2cnc(-c3ccc(F)cc3)s2)c1` [PJL-122], the FP % inhibition in experiment [1] is reported as 25%.
As for `COc1cc(NS(=O)(=O)c2cnc(-c3ccc(F)cc3)s2)c(C(=O)O)cc1F` [PJL-123], the FP % inhibition in experiment [1] is 16%.
Consider `COc1ccc(-c2csc(NC(=O)c3ccc(C)cc3-c3ccccc3C(=O)O)n2)cc1` [PJL-125], for which, in experiment [1], the FP % inhibition is 56% and the IC50 stood at 3.4 µM.
For `COc1ccc(-c2csc(NC(=O)c3cccc(C)c3-c3ccccc3C(=O)O)n2)cc1` [PJL-128] the same measures were 41% and 18.5 µM.
For the compound `CC(=O)Nc1ccc(C(=O)Nc2nc(-c3ccc(Cl)cc3Cl)cs2)c(-c2ccccc2C(=O)O)c1` [PJL-129], in experiment [1], the FP % inhibition came to 43% and the IC50 is 11 µM.
Take `O=C(O)c1ccccc1-c1cc(O)ccc1C(=O)Nc1nc(-c2ccc(Cl)cc2Cl)cs1` [PJL-130]: the inhibition at 50 µM in the experiment on Arabidopsis thaliana amounted to 93%. In experiment [1], the FP % inhibition turned out to be 52% and the IC50 was 3.4 µM.
In the case of `O=C(O)c1ccccc1-c1cc(CO)ccc1C(=O)Nc1nc(-c2ccc(Cl)cc2Cl)cs1` [PJL-131], in experiment [1], the FP % inhibition was determined as 42% and the half-maximal inhibitory concentration (IC50) turned out to be 9.3 µM.
For `O=C(O)c1ccccc1-c1ccc(O)cc1C(=O)Nc1nc(-c2ccc(Cl)cc2Cl)cs1` [PJL-132], in experiment [1], the FP % inhibition is reported as 51% and the IC50 was 4.5 µM.
With `COc1ccc(C(=O)O)c(-c2cc(N)ccc2C(=O)Nc2nc(-c3ccc(Cl)cc3Cl)cs2)c1` [PJL-133], in experiment [1], the FP % inhibition came out at 48% and the IC50 turned out to be 7.6 µM.
In the case of `O=C(O)c1ccc(Cl)c(S(=O)(=O)Nc2cccc(C(=O)Nc3cccc(C(F)(F)F)c3)c2)c1` [PJS-227], the inhibition at 50 µM with Arabidopsis thaliana came out at 39%. Also, in experiment [1], the FP % inhibition is recorded as 18% and the IC50 was 54.2 µM.

The values are drawn from patent US20250008959A1, “HERBICIDES AND USE THEREOF” (Projini Agchem LTD, priority 2021, published 2025).
